Results reported in patent publication US12329801B2, “Regenerative polypeptides and uses thereof” (JUVENA THERAPEUTICS, INC., priority 2021, dated 2025).

Assays:
[1] = test system: 10 week old dystrophic mice (mdx); assay: Duchenne muscular dystrophy model, 10 week old dystrophic mice (mdx); assay type: in vivo; details: 150 μg/kg with 1.2 g/kg sodium butyrate subcutaneously every 24 hours
Description: Between 3-6 weeks old, the skeletal muscle of mdx mice undergoes severe necrosis followed by an increase in the activation of satellite cells to promote muscle regeneration. Treatment with IGF2 fusion polypeptide described herein can improve the regeneration process and therefore muscle health. Mice were fed ad libitum and housed under controlled conditions of lighting (12-hour light/12-hour dark) and temperature (22-24° C.). Mice were allowed to acclimate for 3 days prior to the initiation of the experiment. During the acclimation period, the weight, forelimb and both limb grip strength as well as in vivo tetanic force were assessed to determine the baseline strength of each mouse. 10 week old dystrophic mice (mdx) were injected with the IGF2 fusion polypeptide with sodium butyrate subcutaneously for 14 days. At day 7, forelimb and both grip strength are measured as described in Example 4. BrdU was injected on days 12, 13 and 14. On days 13, 14 and 15, forelimb and both limb grip strength and in vivo tetanic force were tested, and an endurance test to determine max distance and max speed was performed using methods described in Example 4.
Mice were euthanized. The right tibialis anterior and gastrocnemius were collected, immersed in Tissue-TEK OCT and then flash frozen in a chilled isopentane bath precooled in liquid nitrogen and stored at −80° C. Tissue was sectioned and stained for Laminin to determine the cross sectional area (CSA) of muscle fibers, for eMyHC to measure new fiber formation and for BrdU to assess the proliferation rate. The left anterior tibialis and gastrocnemius were collected and flash frozen in liquid nitrogen for molecular analysis that include qPCR and western blot.

DM1 human myoblast = assay: Myogenic gene expression fold change in DM1 human myoblast; assay type: cell-based; details: 48 h; BMP7 50 ng/mL, Butyrate 100 nM, IGF2 200 ng/mL
Description: Myoblasts were cultured 48 h in the presence of factors (BMP7 50 ng/mL, Butyrate 100 nM, IGF2 200 ng/mL).
Myoblasts were cultured 96 h in the presence of factors (IGF2 200 ng/ml). […] Myoblasts were cultured 48 h in the presence of factors (IGF2 200 ng/mL).
IGF2 was tested individually for its ability to promote proliferation and/or fusion of human muscle progenitor cells from an individual with myotonic dystrophy type 1 (hMD)—a muscular dystrophy caused by mutations in the DMPK1 gene. The effect of IGF2 on myogenic activity was assayed in biological triplicate across a range of concentrations centered around expected physiological levels by adding each factor to hMD myoblasts for 72 hours with daily media changes (DMEM +2% horse serum) and a second pulse of factors at the first media change. After 72 or 96 hours, cells were pulsed for 2-5 hours with EdU (30 uM), ethanol fixed, stained with Hoescht 3342, immunostained for proliferation—as measured by the percent of cells staining positive for EdU (% EdU)-, and immunostained for differentiation—as measured by the increase in cellular area staining positive for embryonic myosin heavy chain (% eMyHC) relative to the negative controls, which received media and vehicle only. Wells were imaged on a Keyence BZ-100 at 4×, the images quantified in Cell Profiler, and the statistics were computed in R. Additionally, RNA was extracted from myoblast and select transcript abundances quantified by qPCR.

## IGF2: Human IGF2 amino acid sequence, SEQ ID NO: 29
[1]
  bothlimb grip strength: effective at improving
  forelimb grip strength: effective at improving
  total work: effective at improving
  treadmill running distance: effective at improving
  treadmill running time to exhaustion: effective at improving
[1]; vs vehicle
  muscle weight: effective at improving
DM1 human myoblast
  MYF5 expression fold change compared to FM (vehicle): 0.730
  MYOD1 expression fold change compared to FM (vehicle): 1.252
  MYOG expression fold change compared to FM (vehicle): 2.972
